This is an account of results in ChEMBL document CHEMBL3822373, “An evolved oxazolidinone with selective potency against Mycobacterium tuberculosis and gram positive bacteria” (2016).

The subject of this assay is Mycobacterium tuberculosis. As to the kind of experiment: Antibacterial activity against Mycobacterium tuberculosis H37Rv assessed as frequency of spontaneous resistant mutant at 5 and 10 times MIC90 measured after 5 weeks. The class given is functional, organism-based.

The source made the active and inactive calls. The calls are words filed in the database; no cut-off is given here.

Regarding `CC(=O)NC[C@H]1CN(c2ccc3c(c2)Oc2ccccc2O3)C(=O)O1`, the result was inactive.
